# Data as given in US10351522B2, “Sulfonamide derivative and pharmaceutically acceptable acid addition salt thereof” (UNIVERSITY OF TSUKUBA, priority 2015, dated 2019).
# What was measured:
# [1] = target: T1, human OX1R (Homo sapiens, UniProt O43613); experiment: Agonist activity against OX1R: intracellular calcium (Fura-2AM, FDSS7000) in CHOOX1R cells; format: cell-based; details: relative to orexin-A as full agonist (100%), read-out: Response (%) OX1R
# T1 construct: expressed in transfected cells; host or cells: CHO (Chinese hamster ovary) cells, line CHOOX1R, co-expressing NFAT-luciferase
# T1 sequence (O43613 1-425): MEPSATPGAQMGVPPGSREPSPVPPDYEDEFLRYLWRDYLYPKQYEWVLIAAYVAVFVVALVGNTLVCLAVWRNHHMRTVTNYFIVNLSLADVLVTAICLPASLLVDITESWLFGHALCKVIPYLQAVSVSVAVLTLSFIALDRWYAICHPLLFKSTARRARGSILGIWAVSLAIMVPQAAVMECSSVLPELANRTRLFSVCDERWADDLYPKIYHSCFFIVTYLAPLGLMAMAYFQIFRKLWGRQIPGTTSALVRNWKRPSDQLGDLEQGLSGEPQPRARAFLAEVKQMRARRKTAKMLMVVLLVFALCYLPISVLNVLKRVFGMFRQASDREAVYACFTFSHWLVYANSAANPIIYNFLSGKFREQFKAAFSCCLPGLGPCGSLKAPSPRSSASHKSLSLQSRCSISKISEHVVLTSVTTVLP
# Outline: (§1)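 CHO cells stably expressing human OX1R or OX2R (plus NFAT-luciferase) were loaded with 5 μM Fura-2AM for 60 min, then given compound at 10^−7 to 10^−5 M final (1% DMSO). Calcium change read as 340/380 nm excitation fluorescence ratio; response expressed as % of orexin-A maximal activity at 10, 1.0 and 0.1 μM.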
# [2] = target: T2, human OX2R (Homo sapiens, UniProt O43614); experiment: Agonist activity against OX2R: intracellular calcium (Fura-2AM, FDSS7000) in CHOOX2R cells; format: cell-based; details: relative to orexin-A as full agonist (100%)
# T2 construct: expressed in transfected cells; host or cells: CHO (Chinese hamster ovary) cells, line CHOOX2R, co-expressing NFAT-luciferase
# T2 sequence (O43614 1-444): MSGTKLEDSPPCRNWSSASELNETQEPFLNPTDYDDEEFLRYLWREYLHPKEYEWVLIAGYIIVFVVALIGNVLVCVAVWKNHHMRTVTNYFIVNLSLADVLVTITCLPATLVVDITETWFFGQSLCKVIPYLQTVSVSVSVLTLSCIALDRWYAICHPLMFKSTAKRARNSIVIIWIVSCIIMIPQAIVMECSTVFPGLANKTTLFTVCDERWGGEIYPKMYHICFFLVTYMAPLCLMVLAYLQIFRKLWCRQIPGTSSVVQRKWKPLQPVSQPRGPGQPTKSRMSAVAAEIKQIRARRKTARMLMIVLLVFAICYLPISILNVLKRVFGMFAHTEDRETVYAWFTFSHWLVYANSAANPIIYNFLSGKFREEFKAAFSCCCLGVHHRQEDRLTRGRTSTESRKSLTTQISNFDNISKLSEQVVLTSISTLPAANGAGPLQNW
# Outline: as §1
# [3] = test system: C57BL/6 wild-type mouse; experiment: Awakening effect on wild-type mouse by light period intraventricular administration (EEG/EMG hypnogram); format: in vivo; details: 10 nmol intraventricular at ZT6 (light period), hypnogram for 3 hr
# Source text: Awakening Effect on Wild-Type Mouse by Light Period Intraventricular Administration of the Compound of the Present Invention
# As the experiment animal, C57BL/6 lineage wild-type mouse (male) was used. The mice before and after 9-week-old (±1 week) underwent surgery for embedding electroencephalogram electrodes into the skull (Bregma: X=1.5; Y=0.6, Lambda: X=1.5; Y=0) and inserting electromyogram electrodes into the trapezius muscle under isoflurane anesthesia. The mice for intraventricular administration also underwent cannula embedding into lateral cerebral ventricle (Bregma: X=−0.9; Y=−0.3). From two weeks thereafter, the administration and electroencephalogram measurement were started. The experiment was conducted under a light-dark cycle environment in which the light period started at 9 (ZT0) and the dark period started at 21 (ZT12).
# The test compound (compound of Example 40) (10 nmol; dissolved in 5% chromophore-containing saline) (5 μl) was injected at ZT6 into the lateral cerebral ventricle of wild-type mice under isoflurane anesthesia through cannula by using a microsyringe pump at a flow rate of 0.5 μl/min, and electroencephalogram and electromyogram was measured thereafter. The administration was started with 5% chromophore-containing saline (Vehicle) as a control, and then the test compound was administered. […]
smiles,measurement,setting,value
"COc1ccc(-c2cccc(C(=O)N(C)C)c2)cc1S(=O)(=O)Nc1cccc(NC(=O)Nc2cccc(N(C)C)c2)c1 [Example 40, 3′-(N-(3-(3-(3-(dimethylamino)phenyl)ureido)phenyl)sulfamoyl)-4′-methoxy-N,N-dimethyl-[1,1′-biphenyl]-3-carboxamide]",Emax at 0.1 µM,[1]; 0.1 μM test compound,< 5%
same,Emax at 1 µM,[1]; 1.0 μM test compound,< 5%
same,Emax at 10 µM,[1]; 10 μM test compound,< 5%
same,Response (%) OX2R,[2]; 0.1 μM test compound,77%
same,Response (%) OX2R,[2]; 1.0 μM test compound,60%
same,Response (%) OX2R,[2]; 10 μM test compound,52%
same,conscious time compared to Vehicle administration,[3],increased
